This is an account of results in article PMC12652113, “Fluorescent Albumin-Binding N-Propylbenzene Indolenine-Based Squaraines as Potential Candidates for Prostate Cancer Photodynamic Therapy Photosensitizers” (International Journal of Molecular Sciences, 2025).

Data set [1] concerns prostate adenocarcinoma (PC-3) cell line. Nature of the data set: MTT dark and light-induced cytotoxicity in PC-3. The class given is cell-based, human. The conditions noted are these: for IC50: Homo sapiens, 24 h incubation; for tumor selectivity ratio (TSR): IC50 NHDF irradiated/IC50 PC-3 irradiated; for Photodynamic ratio (PTR): PC-3, IC50 dark/IC50 irradiated. The procedure: For potential applicability as photosensitizers in PDT, these candidates are expected to display cytotoxic effects only after photoactivation, namely, and preferably restricted to target tissue cells, without inducing damage to healthy counterparts. To evaluate this, prostate adenocarcinoma PC-3 cells and non-tumoral NHDF fibroblasts were incubated with increasing concentrations of the squaraine dyes for 24 h. Subsequently, the cells were irradiated using an LED system centered at 663 nm, a wavelength close to the absorption maximum of the monomeric dye forms. Twenty-four hours post-irradiation, cellular metabolic activity was assessed by the MTT assay.
The in cell photocytotoxicity of the squaraine dyes was assessed using the MTT assay. When cells reached 90–95% confluence, they were trypsinized using a trypsin-EDTA solution (0.125 g/L trypsin, 0.02 g/L EDTA), counted via trypan-blue exclusion in a Neubauer chamber, and diluted to 2 × 10^4 cells/mL. A 100 µL aliquot of this suspension was seeded into each well of 96-well plates and incubated for 48 h to allow for cell attachment and resumption of proliferation.
After this period, the medium was removed, and cells were treated with various concentrations of the squaraine dyes (0.01, 0.1, 1, 2.5, 5, and 10 µM) in the appropriate culture medium. […] Negative controls consisted of cells exposed only to culture medium. All experiments were performed in quadruplicate and independently repeated.
After 24 h of exposure to the dyes, the cells were subjected to two different irradiation conditions: the first group was not irradiated and was protected from ambient light for 21 min, and the second group was irradiated for 7 min.
Twenty-four hours post-irradiation, the culture medium was removed, cells were washed with 100 µL PBS, and 100 µL of MTT solution (5 mg/mL in serum- and antibiotic-free medium) was added per well. Cells were incubated for 4 h at 37 °C, after which the supernatant was discarded, and the formazan crystals were solubilized in dimethyl sulfoxide. Absorbance was measured at 570 nm using a Bio-Rad xMark microplate reader.
Cell viability was expressed as the percentage of absorbance in treated samples relative to the untreated negative control. Data were statistically analyzed by ordinary two-way ANOVA followed by the Šidák multiple comparisons test, comparing irradiated and non-irradiated conditions at the same concentration, with differences considered statistically significant at a p-value < 0.05. Half-maximal inhibitory concentration values reported in this work were obtained by fitting the data to a sigmoidal model with a 95% confidence interval. All assays were performed in quadruplicate and replicated independently at least twice. Phototoxicity and tumor selectivity ratios were quantified according to Equations (6) and (7):(6) PTR = IC50 dark condition/IC50 irradiated condition (7) TSR = IC50 for NHDF cells under irradiated condition/IC50 for cancer cell line under irradiated condition
Irradiation was performed using a light-emitting diode array centered at 663 ± 8 nm to match the absorption maximum of the dyes. The LED (Roithner; 8.3 mW radiant flux) was integrated into flat-bottom 96-well plates and powered by a regulated current source. The irradiance was 15.8 mW/cm^2, and the total energy delivered per well was 3.49 J after 7 min, ensuring precise light dosing for all experiments.

A short description of data set [2]: Absorption and fluorescence photophysical characterization in organic solvents. In kind it is physicochemical. The method, then:
UV–Vis spectra were recorded on a Perkin-Elmer Lambda 25 spectrophotometer (Perkin-Elmer, Waltham, MA, USA) using Hellma Analytics quartz cuvettes (1 cm path length; Hellma Analytics, Müllheim, Germany). Spectral data are reported as maximum absorption wavelength (λmax, nm) and molar absorptivity (ε, M^−1·cm^−1). The latter was calculated according to the Lambert–Beer law from calibration plots of absorbance at λmax versus known dye concentrations.
Ultraviolet–visible absorption spectra were obtained at room temperature using a PerkinElmer Lambda 25 spectrophotometer, while fluorescence emission data were collected on a Horiba Jobin Yvon FluoroMax-4 fluorometer. Singlet oxygen and photostability tests and measurements were carried out on a BioRad xMark microplate reader (Bio-Rad, Hercules, CA, USA).
[…] All stock solutions were prepared at 0.67 mM concentration and stored in the dark at 4 °C until further use. For spectroscopic characterization, 1.0 µM stock solutions of the squaraine dyes in dimethyl sulfoxide were serially diluted into a series of solvents (chloroform, dimethyl sulfoxide, methanol, and phosphate buffer) to obtain at least five defined concentrations. The absorption spectra of these dilutions were recorded and used to calculate molar extinction coefficients according to the Beer–Lambert law. Additional working solutions at a 1.0 µM concentration were prepared in dimethyl sulfoxide and buffer, and 1.0% Triton X-100 was added where required to investigate dye aggregation.
The emission areas were integrated, and relative quantum yields were calculated following established methodologies, considering both absorbance at the excitation wavelength and the refractive index of the solvent. The calculation was performed using Equation (2), where “dye” and “ref” denote the squaraine dyes and the reference compound, respectively; I corresponds to the integrated emission intensity, A to the absorbance value at the excitation wavelength, and η to the refractive index of the solvent:(2) ΦF(dye)= ΦF(Std)Idye/Iref Aref/Adye ηdye2/ηref2

Data set [3] can be described thus: Photophysical properties in phosphate buffer in the absence of HSA. In kind it is physicochemical. The conditions noted are these: phosphate buffer (pH 7.4). The procedure:
Squaraine dyes were dissolved in dimethyl sulfoxide, whereas zinc phthalocyanine required dimethylformamide as a solvent. All stock solutions were prepared at 0.67 mM concentration and stored in the dark at 4 °C until further use. For spectroscopic characterization, 1.0 µM stock solutions of the squaraine dyes in dimethyl sulfoxide were serially diluted into a series of solvents (chloroform, dimethyl sulfoxide, methanol, and phosphate buffer) to obtain at least five defined concentrations. The absorption spectra of these dilutions were recorded and used to calculate molar extinction coefficients according to the Beer–Lambert law. Additional working solutions at a 1.0 µM concentration were prepared in dimethyl sulfoxide and buffer, and 1.0% Triton X-100 was added where required to investigate dye aggregation.
For fluorometric experiments, the squaraine stock solutions were initially prepared in dimethylformamide and subsequently diluted with phosphate buffer for the protein–dye interaction analysis. Human serum albumin stock solution was then added to these mixtures, while keeping the dye concentration fixed at 2.0 µM and varying the protein concentration from 0 to 3.0 µM (0.0 to 3.0 µM for squaraines 5, 9, and 11, and from 0 to 6.0 µM for squaraine 13). Fluorescence intensities of the resulting solutions were recorded after 0, 3, and 24 h of incubation with the protein. The excitation wavelengths and excitation/emission slit widths used for the measurements were optimized for each dye, as listed in Table 6.

Where [4] appears, read: light or radiation study, PC-3, Light, 7 min LED 663 nm, MTT 24 h post-irradiation.
Where [5] appears, read: DMSO, relative to zinc phthalocyanine.

As for `CNC1=C(C=C2N(CCCc3ccccc3)c3ccccc3C2(C)C)C(=O)C1=CC1=[N+](CCCc2ccccc2)c2ccccc2C1(C)C.[I-]` [Dye 11, 2-{3-[3,3-Dimethyl-1-(3-phenylpropyl)indolin-2-ylidenemethyl]-2-(methylamino)-4-oxocyclobut-2-en-1-ylidenemethyl}-3,3-dimethyl-1-(3-phenylpropyl)-indol-1-ium Iodide], in data set [1] (setting [4]), the IC50 amounted to 90 nM. The IC50 in data set [1] (PC-3, Dark, MTT 24 h later) worked out at 1440 nM. In data set [1], the “tumor selectivity ratio (TSR)” value stood at 36.0 and the “Photodynamic ratio (PTR)” value came to 16. For the same compound, in data set [2] (DMSO), the “Stokes shift (ΔS)” value is 12 nm, the “absorption maximum (λabs)” value was 663 nm, the “emission maximum (λem)” value is 675 nm and the “molar absorption coefficient (ε)” value was 212000 M⁻¹ cm⁻¹. In addition, the “fluorescence quantum yield (ΦF)” value in data set [2] (setting [5]) amounted to 0.04. Also, in data set [2] (chloroform (CFM)), the “Stokes shift (ΔS)” value is reported as 13 nm, the “absorption maximum (λabs)” value was found to be 657 nm, the “emission maximum (λem)” value was found to be 670 nm and the “fluorescence quantum yield (ΦF)” value is 0.10. In data set [2] (chloroform (CFM)), the “molar absorption coefficient (ε)” value came to 202000 M⁻¹ cm⁻¹. Moreover, in data set [2] (methanol (MeOH)), the “Stokes shift (ΔS)” value was 11 nm, the “absorption maximum (λabs)” value is 650 nm, the “emission maximum (λem)” value is given as 661 nm and the “fluorescence quantum yield (ΦF)” value came to 0.01. Also, in data set [2] (methanol (MeOH)), the “molar absorption coefficient (ε)” value was determined as 174000 M⁻¹ cm⁻¹. For the same compound, in data set [3], the “absorption maximum (λabs)” value stood at 655 nm, the “fluorescence quantum yield (ΦF)” value amounted to 0.01 and the “molar absorption coefficient (ε)” value turned out to be 71000 M⁻¹ cm⁻¹.
For the compound `CC1(C)C(=CC2=C(N)C(=CC3=[N+](CCCc4ccccc4)c4ccccc4C3(C)C)C2=O)N(CCCc2ccccc2)c2ccccc21.[I-]` [Dye 9, 2-{2-Amino-3-[3,3-dimethyl-1-(3-phenylpropyl)indolin-2-ylidenemethyl]-4-oxocyclobut-2-en-1-ylidenemethyl}-3,3-dimethyl-1-(3-phenylpropyl)-indol-1-ium Iodide], the IC50 in data set [1] (setting [4]) is 93 nM. In data set [1] (PC-3, Dark, MTT 24 h later), this compound yielded an IC50 of 1210 nM. In data set [1], the “tumor selectivity ratio (TSR)” value worked out at 40.8 and the “Photodynamic ratio (PTR)” value is 13. Moreover, in data set [2] (DMSO), the “Stokes shift (ΔS)” value amounted to 12 nm, the “absorption maximum (λabs)” value amounted to 652 nm, the “emission maximum (λem)” value was determined as 664 nm and the “molar absorption coefficient (ε)” value stood at 232000 M⁻¹ cm⁻¹. Further, the “fluorescence quantum yield (ΦF)” value in data set [2] (setting [5]) is on record as 0.12. Besides, in data set [2] (chloroform (CFM)), the “Stokes shift (ΔS)” value stood at 9 nm, the “absorption maximum (λabs)” value worked out at 647 nm, the “emission maximum (λem)” value is recorded as 656 nm and the “fluorescence quantum yield (ΦF)” value amounted to 0.08. For the same compound, the “molar absorption coefficient (ε)” value in data set [2] (chloroform (CFM)) worked out at 330000 M⁻¹ cm⁻¹. Besides, in data set [2] (methanol (MeOH)), the “Stokes shift (ΔS)” value was found to be 12 nm, the “absorption maximum (λabs)” value was 640 nm, the “emission maximum (λem)” value came out at 652 nm and the “fluorescence quantum yield (ΦF)” value came to 0.02. Moreover, in data set [2] (methanol (MeOH)), the “molar absorption coefficient (ε)” value is 303000 M⁻¹ cm⁻¹. In data set [3], the “Stokes shift (ΔS)” value was 37 nm, the “absorption maximum (λabs)” value is 605 nm, the “emission maximum (λem)” value was 642 nm and the “fluorescence quantum yield (ΦF)” value is on record as 0.00. Besides, in data set [3], the “molar absorption coefficient (ε)” value was 58000 M⁻¹ cm⁻¹.

The IC50 is the concentration that gives 50% inhibition.
